Test system: C2C12 myoblasts differentiated into myotubes
Experiment: Fatty acid oxidation rate (14CO2 from [1-14C] palmitate) in differentiated C2C12 myotubes
Assay type: cell-based
Settings: 10 μM DMC derivative, 24 hours, lysate with 0.2 mmol/L [1-14C] palmitate, 3 hours, positive control AICAR, control compounds CON1-CON6, FIG. 1
Experimental: To measure the fatty acid oxidation rate, C2C12 myoblasts were primarily cultured in DMEM supplemented with 10% fetal bovine serum, and then cultured for 5 days in DMEM supplemented with 2% horse serum in order to differentiate into myotubes. Then, the differentiated myotubes were treated with 10 μM of the DMC derivative, and cultured for 24 hours, and the cells were then harvested. Next, the harvested cells were lysed using a mitochondrial isolation buffer (250 mmol/L sucrose, 10 mmol/L Tris-HCl, and 1 mmol/L EDTA), treated with 0.2 mmol/L [1-^14C] palmitate, and then allowed to react for 3 hours. Next, the amount of ^14CO2 thus generated was measured, and the measured amount of ^14CO2 was corrected for the total amount of proteins to compare the fatty acid oxidation rate. In this case, AICAR was used as a positive control, and the compounds shown in Table 2 below were used as control compounds.

Compound	fatty acid oxidation rate (amount of 14CO2 generated, corrected for total protein)
COCOc1c(C)c(O)c(C(=O)/C=C/c2cccc(F)c2)c(OC)c1C [Compound 1, 1-(2′-hydroxy-4′-(methoxymethoxy)-6′-methoxy-3′,5′-dimethylphenyl)-3-(3-fluorophenyl)-2-propen-1-one]	higher fatty acid oxidation effect than the derivatives (CON1, CON2)
COc1c(C)c(O)c(C)c(O)c1C(=O)/C=C/c1cccc(F)c1 [Compound 8, 1-(2′,4′-dihydroxy-6′-methoxy-3′,5′-dimethylphenyl)-3-(3-fluorophenyl)-2-propen-1-one]	higher fatty acid oxidation effect than the derivatives (CON3, CON4)
COc1c(C)c(OC)c(C(=O)/C=C/c2cccc(F)c2)c(OC)c1C [Compound 15, 1-(2′,4′,6′-trimethoxy-3′,5′-dimethylphenyl)-3-(3-fluorophenyl)-2-propen-1-one]	higher fatty acid oxidation effect than the derivatives (CON5, CON6)
